# In patent US8314092B2, “Substituted [(5H-pyrrolo[2,1-c][1,4]benzodiazepin-11-yl)piperazin-1-yl]-2,2-dimethylpropanoic acid compounds as dual activity H1 inverse agonists/5-HT2A antagonists” (Eli Lilly and Company, priority 2011, dated 2012):
# Where a name gives a salt, the structure may show the parent alone.
# Assays:
# [1] = biological target: Adrenergic alpha2A (Homo sapiens, UniProt P08913); experiment: Adrenergic alpha2A binding
# From the text: (§1) Further, the compounds of the invention may be tested in binding assays and functional activity assays by well known methods for other physiologically important receptors such as, but not limited to, the hERG channel, other serotonin receptors (specifically 5-HT1A, 5-HT1B, 5-HT1D, 5-HT1E, 5-HT1F receptors, lack of agonist activity at 5-HT2B receptors, 5-HT2C, 5-HT4, 5-HTS, 5-HT6, and 5-HT7 receptors), muscarinic receptors, dopaminergic receptors (specifically D1, D2, and D3), GABAA receptors, adrenergic receptors and monoamine transporters. Certain exemplified compounds are tested at these receptors and are shown to lack significant activity.
# [2] = biological target: T1, recombinant 5-HT2c receptor (human) (Homo sapiens, UniProt P28335); experiment: 5-HT2c competition binding assay ([125I]-DOI SPA)
# T1 construct: expressed in transfected cells
# T1 sequence (P28335 33-458): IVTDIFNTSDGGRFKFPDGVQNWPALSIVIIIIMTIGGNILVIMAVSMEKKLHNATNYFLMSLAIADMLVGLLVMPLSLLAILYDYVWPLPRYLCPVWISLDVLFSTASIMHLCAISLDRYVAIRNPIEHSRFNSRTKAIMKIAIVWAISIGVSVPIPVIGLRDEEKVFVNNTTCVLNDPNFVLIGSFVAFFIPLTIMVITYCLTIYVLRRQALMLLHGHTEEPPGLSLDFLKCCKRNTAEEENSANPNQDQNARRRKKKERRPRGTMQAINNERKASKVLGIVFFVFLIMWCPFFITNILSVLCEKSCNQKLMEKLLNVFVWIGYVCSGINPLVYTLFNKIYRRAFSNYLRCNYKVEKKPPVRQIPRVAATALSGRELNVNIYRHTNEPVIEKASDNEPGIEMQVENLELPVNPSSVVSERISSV
# Protocol: [^125I]-(±)DOI binding experiments are carried out in SPA 96-well format. Membranes used in this assay are prepared from AV-12 cells stably expressing recombinant 5-HT2c receptor (human). The incubation is initiated by the addition of a mixture of WGA PVT SPA beads (0.5 mg/well, Perkin Elmer (MA, USA), RPNQ0001) and 2.5 μg membranes to assay buffer (50 mM Tris-HCl, 10 mM MgCl2, 0.5 mM EDTA, 10 μM pargyline, 0.1% ascorbic acid, pH7.4) containing 0.2 nM [[^125I]-(±)DOI and varying concentrations of the test compound (10 point concentration response curves). Non-specific binding is determined in the presence of 20 μM 1-(1-Naphthyl)piperazine. Samples are incubated for four hours at room temperature (22° C.) and then read in a Microbeta Trilux.
# (§2) Curves are evaluated using a 4-parameter logistic nonlinear equation to obtain the concentration of competitor causing 50% inhibition of radioligand binding (IC50). Equilibrium dissociation constants (Ki) are calculated according to the equation Ki=IC50/(1+L/Kd), where L equals the concentration of radioligand used in the experiment and Kd equals the equilibrium dissociation constant of the radioligand for the receptor, determined from standard saturation analysis or homologous competition experiments. […]
# [3] = biological target: 5-HT6 (Homo sapiens, UniProt P50406); experiment: 5-HT6 binding
# Sequence of 5-HT6 (P50406 whole entry, species assumed): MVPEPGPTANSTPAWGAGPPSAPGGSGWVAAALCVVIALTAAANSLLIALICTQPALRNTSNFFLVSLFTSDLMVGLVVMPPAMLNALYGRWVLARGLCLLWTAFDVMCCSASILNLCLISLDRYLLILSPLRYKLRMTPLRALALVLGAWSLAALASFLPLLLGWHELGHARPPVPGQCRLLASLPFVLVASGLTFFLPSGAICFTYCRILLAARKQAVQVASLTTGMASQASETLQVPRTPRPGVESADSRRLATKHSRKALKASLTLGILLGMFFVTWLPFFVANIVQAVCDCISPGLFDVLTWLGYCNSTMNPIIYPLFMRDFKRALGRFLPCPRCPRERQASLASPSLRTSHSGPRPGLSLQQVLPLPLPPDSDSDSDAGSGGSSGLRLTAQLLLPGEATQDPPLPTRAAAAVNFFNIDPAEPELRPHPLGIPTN
# From the text: as §1
# [4] = biological target: Dopamine D3 (Homo sapiens, UniProt P35462); experiment: Dopamine D3 binding
# From the text: as §1
# [5] = biological target: Adrenergic alpha1B (Homo sapiens, UniProt P35368); experiment: Adrenergic alpha1B binding
# From the text: as §1
# [6] = biological target: 5-HT1A (Homo sapiens, UniProt P08908); experiment: 5-HT1A binding
# From the text: as §1
# [7] = biological target: Adrenergic alpha2C (Homo sapiens, UniProt P18825); experiment: Adrenergic alpha2C binding
# Sequence of Adrenergic alpha2C (P18825 whole entry): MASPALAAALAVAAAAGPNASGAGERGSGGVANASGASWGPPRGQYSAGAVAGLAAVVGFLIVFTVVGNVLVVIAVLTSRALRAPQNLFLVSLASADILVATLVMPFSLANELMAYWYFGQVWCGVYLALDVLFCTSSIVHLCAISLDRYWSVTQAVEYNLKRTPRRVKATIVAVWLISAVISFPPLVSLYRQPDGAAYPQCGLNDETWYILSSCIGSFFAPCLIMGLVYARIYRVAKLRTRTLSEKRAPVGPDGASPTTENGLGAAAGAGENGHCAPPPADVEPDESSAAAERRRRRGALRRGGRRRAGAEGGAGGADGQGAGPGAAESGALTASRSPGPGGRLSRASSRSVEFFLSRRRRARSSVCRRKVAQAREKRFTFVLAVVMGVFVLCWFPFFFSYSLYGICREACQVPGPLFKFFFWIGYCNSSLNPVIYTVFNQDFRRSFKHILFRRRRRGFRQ
# From the text: as §1
# [8] = biological target: 5-HT5 (Homo sapiens, UniProt P47898); experiment: 5-HT5 binding
# From the text: as §1
# [9] = biological target: Dopamine D2 (Homo sapiens, UniProt P14416); experiment: Dopamine D2 binding
# Sequence of Dopamine D2 (P14416 whole entry): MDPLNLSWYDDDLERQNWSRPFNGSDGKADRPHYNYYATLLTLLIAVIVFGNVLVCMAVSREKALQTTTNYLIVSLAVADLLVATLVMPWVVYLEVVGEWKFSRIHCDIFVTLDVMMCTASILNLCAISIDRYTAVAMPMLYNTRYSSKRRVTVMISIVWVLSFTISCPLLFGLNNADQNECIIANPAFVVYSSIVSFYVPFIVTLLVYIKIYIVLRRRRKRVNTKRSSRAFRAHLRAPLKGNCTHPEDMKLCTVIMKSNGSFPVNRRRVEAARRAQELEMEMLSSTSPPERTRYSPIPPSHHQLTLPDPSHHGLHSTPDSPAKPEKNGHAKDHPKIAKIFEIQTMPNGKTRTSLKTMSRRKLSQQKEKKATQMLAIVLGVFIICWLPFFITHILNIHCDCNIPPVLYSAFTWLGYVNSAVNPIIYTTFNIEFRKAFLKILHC
# From the text: as §1
# [10] = biological target: Adrenergic alpha1A (Homo sapiens, UniProt P35348); experiment: Adrenergic alpha1A binding
# Sequence of Adrenergic alpha1A (P35348 whole entry): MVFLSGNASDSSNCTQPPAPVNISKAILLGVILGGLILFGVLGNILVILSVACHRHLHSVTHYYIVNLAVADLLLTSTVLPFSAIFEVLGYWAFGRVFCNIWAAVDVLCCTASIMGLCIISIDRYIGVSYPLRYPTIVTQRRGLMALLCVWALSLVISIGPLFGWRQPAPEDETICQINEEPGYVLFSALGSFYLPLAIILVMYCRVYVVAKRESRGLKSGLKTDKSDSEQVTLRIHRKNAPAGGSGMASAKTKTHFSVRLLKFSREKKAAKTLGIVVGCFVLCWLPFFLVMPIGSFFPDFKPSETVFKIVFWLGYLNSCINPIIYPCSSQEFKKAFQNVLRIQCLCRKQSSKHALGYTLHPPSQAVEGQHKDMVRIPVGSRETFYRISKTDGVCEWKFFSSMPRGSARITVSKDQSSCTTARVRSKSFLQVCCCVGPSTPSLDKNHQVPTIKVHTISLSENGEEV
# From the text: as §1
# [11] = biological target: Adrenergic alpha2B (Homo sapiens, UniProt P18089); experiment: Adrenergic alpha2B binding
# From the text: as §1
# [12] = biological target: 5-HT7 (Homo sapiens, UniProt P34969); experiment: 5-HT7 binding
# Sequence of 5-HT7 (P34969 whole entry, species assumed): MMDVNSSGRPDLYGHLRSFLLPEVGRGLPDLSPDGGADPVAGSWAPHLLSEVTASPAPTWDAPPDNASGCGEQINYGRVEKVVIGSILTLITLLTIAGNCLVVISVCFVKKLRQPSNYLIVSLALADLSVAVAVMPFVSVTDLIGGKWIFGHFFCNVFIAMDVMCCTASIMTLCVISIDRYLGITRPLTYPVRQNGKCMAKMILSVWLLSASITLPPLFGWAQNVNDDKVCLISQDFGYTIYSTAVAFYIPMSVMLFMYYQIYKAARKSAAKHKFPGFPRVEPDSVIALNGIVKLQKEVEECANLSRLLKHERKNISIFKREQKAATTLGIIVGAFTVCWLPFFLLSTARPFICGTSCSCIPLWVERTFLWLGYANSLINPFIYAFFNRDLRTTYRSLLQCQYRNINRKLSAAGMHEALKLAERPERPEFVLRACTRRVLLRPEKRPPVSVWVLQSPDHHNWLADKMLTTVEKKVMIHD
# From the text: as §1
# [13] = biological target: T2, recombinant 5-HT2A receptor (human) (Homo sapiens, UniProt P28223); experiment: 5-HT2A competition binding assay ([3H]-Ketanserin SPA)
# T2 construct: expressed in transfected cells
# Protocol: [^3H]-Ketanserin binding experiments are carried out in SPA 96-well format. Membranes used in this assay are prepared from AV-12 cells stably expressing recombinant 5-HT2A receptor (human). The incubation is initiated by the addition of a mixture of WGA YSi SPA beads (1 mg/well, Perkin Elmer (MA, USA), RPNQ0011) and 2 μg membranes to assay buffer (67 mM Tris, 0.5 mM EDTA; pH 7.6) containing 3.1 nM [^3H]-Ketanserin and varying concentrations of the test compound (10 point concentration response curves). Non-specific binding is determined in the presence of 20 μM 1-(1-Naphthyl)piperazine. Samples were incubated for four hours at room temperature (22° C.) and then read in a Microbeta Trilux.
# as §2, with “experiments. Reported values for Ki, where n values are indicated, are shown as geometric mean±the standard error of the mean (SEM), with the number of replicate determinations indicated by n.” for “experiments.”
# [14] = biological target: Serotonin Transporter (Homo sapiens, UniProt P31645); experiment: Serotonin transporter assay; format: binding
# From the text: as §1
# [15] = biological target: 5-HT1B (Homo sapiens, UniProt P28222); experiment: 5-HT1B binding
# From the text: as §1
# [16] = biological target: 5-HT1D (Homo sapiens, UniProt P28221); experiment: 5-HT1D binding
# Sequence of 5-HT1D (P28221 whole entry, species assumed): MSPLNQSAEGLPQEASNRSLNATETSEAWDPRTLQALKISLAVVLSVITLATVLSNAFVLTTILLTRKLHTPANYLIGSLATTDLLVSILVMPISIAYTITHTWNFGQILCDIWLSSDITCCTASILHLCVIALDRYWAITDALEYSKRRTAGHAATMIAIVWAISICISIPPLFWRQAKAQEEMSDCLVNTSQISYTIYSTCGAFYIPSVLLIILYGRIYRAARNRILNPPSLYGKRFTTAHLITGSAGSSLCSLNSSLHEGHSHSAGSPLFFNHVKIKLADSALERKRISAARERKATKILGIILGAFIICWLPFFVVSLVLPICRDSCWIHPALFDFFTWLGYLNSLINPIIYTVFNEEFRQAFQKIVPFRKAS
# From the text: as §1
# [17] = biological target: hERG channel (Homo sapiens, UniProt Q12809); experiment: hERG channel assay
# Sequence of hERG channel (Q12809 whole entry): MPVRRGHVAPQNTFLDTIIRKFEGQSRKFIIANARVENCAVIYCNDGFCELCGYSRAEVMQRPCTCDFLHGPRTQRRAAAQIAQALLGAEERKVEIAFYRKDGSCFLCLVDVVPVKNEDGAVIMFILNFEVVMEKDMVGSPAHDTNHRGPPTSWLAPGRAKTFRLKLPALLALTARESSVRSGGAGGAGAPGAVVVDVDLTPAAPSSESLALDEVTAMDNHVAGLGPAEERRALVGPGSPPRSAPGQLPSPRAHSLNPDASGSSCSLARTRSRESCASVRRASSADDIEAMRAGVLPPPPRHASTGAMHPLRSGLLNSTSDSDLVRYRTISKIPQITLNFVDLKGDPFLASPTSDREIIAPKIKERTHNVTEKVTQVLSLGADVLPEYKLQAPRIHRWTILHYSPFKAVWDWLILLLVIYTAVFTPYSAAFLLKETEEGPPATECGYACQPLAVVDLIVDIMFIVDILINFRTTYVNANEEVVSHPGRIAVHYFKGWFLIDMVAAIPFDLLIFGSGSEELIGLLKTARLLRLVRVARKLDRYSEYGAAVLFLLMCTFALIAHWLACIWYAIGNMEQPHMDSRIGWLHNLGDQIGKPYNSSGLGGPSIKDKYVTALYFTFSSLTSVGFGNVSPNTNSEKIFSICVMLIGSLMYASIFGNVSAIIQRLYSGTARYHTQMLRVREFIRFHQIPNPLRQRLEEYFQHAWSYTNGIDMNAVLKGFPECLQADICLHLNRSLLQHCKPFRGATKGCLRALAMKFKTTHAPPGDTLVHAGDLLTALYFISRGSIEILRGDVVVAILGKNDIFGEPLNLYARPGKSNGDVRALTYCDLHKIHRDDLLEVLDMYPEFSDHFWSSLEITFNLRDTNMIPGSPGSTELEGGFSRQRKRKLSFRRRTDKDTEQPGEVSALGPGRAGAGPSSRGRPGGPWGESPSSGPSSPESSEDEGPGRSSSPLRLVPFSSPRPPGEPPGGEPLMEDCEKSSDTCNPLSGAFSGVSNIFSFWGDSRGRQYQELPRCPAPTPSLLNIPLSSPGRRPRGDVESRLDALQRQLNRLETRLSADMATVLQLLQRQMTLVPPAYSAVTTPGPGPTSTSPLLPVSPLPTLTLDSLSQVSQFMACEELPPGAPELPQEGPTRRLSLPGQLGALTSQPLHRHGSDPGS
# From the text: as §1
# [18] = biological target: Dopamine D1 (Homo sapiens, UniProt P21728); experiment: Dopamine D1 binding
# From the text: as §1
# [19] = biological target: Norepinephrine Transport (Homo sapiens, UniProt P23975); experiment: Norepinephrine transporter assay; format: binding
# Sequence of Norepinephrine Transport (P23975 whole entry): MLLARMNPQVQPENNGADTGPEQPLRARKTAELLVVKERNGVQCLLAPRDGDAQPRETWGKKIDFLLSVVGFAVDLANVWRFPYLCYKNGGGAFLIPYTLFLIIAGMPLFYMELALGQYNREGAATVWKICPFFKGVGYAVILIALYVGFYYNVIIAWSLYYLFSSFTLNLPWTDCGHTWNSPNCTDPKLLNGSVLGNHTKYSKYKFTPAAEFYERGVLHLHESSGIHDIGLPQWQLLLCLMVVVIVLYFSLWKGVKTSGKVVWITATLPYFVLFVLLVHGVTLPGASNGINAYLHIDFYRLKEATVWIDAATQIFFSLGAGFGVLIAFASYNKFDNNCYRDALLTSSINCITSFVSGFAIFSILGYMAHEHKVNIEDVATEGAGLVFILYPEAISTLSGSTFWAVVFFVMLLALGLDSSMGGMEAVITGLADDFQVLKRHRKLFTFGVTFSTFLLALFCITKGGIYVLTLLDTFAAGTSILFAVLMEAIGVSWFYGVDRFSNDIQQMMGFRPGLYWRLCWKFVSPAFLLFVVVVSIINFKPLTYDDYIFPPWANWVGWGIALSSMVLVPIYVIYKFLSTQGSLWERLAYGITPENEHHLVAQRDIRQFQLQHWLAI
# From the text: as §1
# [20] = biological target: human recombinant H1 receptor (Homo sapiens, UniProt P35367); experiment: H1 competition binding assay ([3H]-Pyrilamine SPA); design: expressed in transfected cells
# Protocol: [^3H]-Pyrilamine binding experiments are carried out in SPA (scintillation proximity assay) 96-well format. Membranes used in this assay are prepared from HEK-293 cells stably expressing recombinant H1 receptor (human). The incubation is initiated by the addition of a mixture of WGA PVT SPA beads (1 mg/well, Perkin Elmer (MA, USA) RPNQ0001) and 3 μg membranes to assay buffer (67 mM Tris; pH 7.6) containing 3.5 nM [^3H]-Pyrilamine and varying concentrations of the test compound (10 point concentration response curves). Non-specific binding is determined in the presence of 10 μM Triprolidine. Samples are incubated for four hours at room temperature (22° C.) and then read in a Microbeta Trilux.
# as §2, with “experiments. Reported values for Ki, where n values are indicated, are shown as geometric mean±the standard error of the mean (SEM), with the number of replicate determinations indicated by n.” for “experiments.”
# [21] = biological target: Dopamine Transporter (Homo sapiens, UniProt Q01959); experiment: Dopamine transporter assay; format: binding
# From the text: as §1
# [22] = system: Wistar rats; experiment: Sleep and behavioral monitoring in rats (EEG, EMG, motion); format: in vivo; details: rat, 3 mg/kg
# Protocol: Sleep and behavioral monitoring in rats: Representative compounds of the present invention are tested in rats for their ability to increase the amount of sleep or decrease sleep interruption or both without undesired effects such as inhibition of REM sleep, waking motor impairment, and/or rebound insomnia. Test animals are continuously monitored by electro-encephalograms (EEG), electromyograms (EMG), and motion to measure cumulative nonREM sleep, cumulative total sleep, average sleep bout duration, longest sleep bout duration, rebound insomnia, REM sleep inhibition and locomotor activity intensity during wakefulness. Methods for such studies are known in the art (see for example methods described in Edgar D M, Seidel W F. Modafinil induces wakefulness without intensifying motor activity or subsequent rebound hypersomnolence in the rat. J Pharmacology & Experimental Therapeutics 1997; 283: 757-769; van Gelder R N, Edgar D M, Dement W C. Real-time automated sleep scoring: validation of a microcomputer-based system for mice. Sleep 1991, 14: 48-55; and Gross B A, Walsh C M, Turakhia A A, Booth V, Mashour G A, Poe G R. Open-source logic-based automated sleep scoring software using electrophysiological recordings in rats. J Neurosci Methods. 2009; 184(1):10-8.) Studies are conducted as follows: Animal preparation. Adult, male Wistar rats (approximately 270-300 g at time of surgery) are surgically fitted for chronic recording of EEG, EMG, and motion as follows: Rats are surgically prepared with a cranial implant consisting of four stainless steel screws for EEG recording (two frontal [3.9 mm anterior from bregma, and ±2.0 mm mediolaterally] and two occipital [6.4 mm posterior from bregma, ±5.5 mm mediolaterally]), and with two Teflon-coated stainless steel wires for EMG recording (positioned under the nuchal trapezoid muscles). All leads are soldered to a miniature connector (Microtech, Boothwyn, Pa.) prior to surgery. The implant assembly is affixed to the skull by the combination of the stainless steel EEG recording screws, cyanoacrylate applied between the implant connector and skull, and dental acrylic. Locomotor activity is monitored via a miniature transmitter (Minimitter PDT4000G, Philips Respironics, Bend, Oreg.) surgically placed into the abdomen. At least 3 weeks are allowed for recovery. Recording environment. Each rat is housed individually within a microisolator cage modified with an inserted polycarbonate filter-top riser to allow more vertical headroom. A flexible cable that minimally restricts movement is connected at one end to a commutator affixed to the cage top and at the other end to the animal's cranial implant. Each cage is located within separate, ventilated compartments of a stainless steel sleep-wake recording chamber. Food and water are available ad libitum and the ambient temperature is maintained at about 23±1° C. A 24-hr. light-dark cycle (LD 12:12) using fluorescent light is maintained throughout the study. Relative humidity averages approximately 50%. Animals are undisturbed for at least 30 hrs before and after each treatment. Study design and dosing. The vehicle (placebo, methylcellulose 15 centipoise 0.25% in water) or one of the test compound dose levels is administered orally at 1 mL/kg pseudo-randomly such that no rat receives the same treatment twice, and no rat receives more than two of the 8 treatments in any one study. Each rat is removed from its cage for about a minute to be weighed and treated. At least 6 days “washout” period precede and follow each treatment. Data collection. […]
compound,measurement,setting,value
"Cc1cc2n(c1)Cc1cc(Cl)ccc1N=C2N1CCN(CC(C)(C)C(=O)O)CC1 [Example 1, 3-[4-(7-chloro-2-methyl-5H-pyrrolo[2,1-c][1,4]benzodiazepin-11-yl)piperazin-1-yl]-2,2-dimethylpropanoic acid]",Ki,[1],> 9.03 µM
same,Ki,[2],3.81 µM
same,Ki,[3],2.69 µM
same,Ki,[4],> 5.68 µM
same,Ki,[5],> 10.9 µM
same,Ki,[6],> 6.94 µM
same,Ki,[7],> 4.02 µM
same,Ki,[8],> 8.83 µM
same,Ki,[9],> 4.5 µM
same,Ki,[10],> 8.91 µM
same,Ki,[11],> 4.98 µM
same,Ki,[12],> 2.06 µM
same,Ki,[13],0.0575 µM
same,Serotonin Transporter,[14],>641
same,Ki,[15],> 5.58 µM
same,Ki,[16],> 3.98 µM
same,hERG Channel,[17],>100 µM
same,Ki,[18],3.79 µM
same,Norepinephrine Transport,[19],>682
same,Ki,[20],0.0273 µM
same,Dopamine Transporter,[21],>879
"CC(C)(CN1CCN(C2=Nc3ccc(Cl)cc3Cn3cc(Br)cc32)CC1)C(=O)O [Example 15, 3-[4-(2-Bromo-7-chloro-5H-pyrrolo[2,1-c][1,4]benzodiazepin-11-yl)piperazin-1-yl]-2,2-dimethylpropanoic acid dihydrochloride]",REM sleep inhibition (in words),[22],without significant
same,cumulative NREM sleep time (in words),[22],significantly increase
same,cumulative total sleep time (in words),[22],significantly increase
same,inhibition of locomotor intensity (LMI) (in words),[22],without significant
same,rebound insomnia (in words),[22],without significant
"CCc1cc2n(c1)Cc1cc(Cl)ccc1N=C2N1CCN(CC(C)(C)C(=O)O)CC1 [Example 16, 3-[4-(7-Chloro-2-ethyl-5H-pyrrolo[2,1-c][1,4]benzodiazepin-11-yl)piperazin-1-yl]-2,2-dimethylpropanoic acid dihydrochloride]",REM sleep inhibition (in words),[22],without significant
same,cumulative NREM sleep time (in words),[22],significantly increase
same,cumulative total sleep time (in words),[22],significantly increase
same,inhibition of locomotor intensity (LMI) (in words),[22],without significant
same,rebound insomnia (in words),[22],without significant
"CC(C)(CN1CCN(C2=Nc3ccc(Cl)cc3Cn3cc(C(F)(F)F)cc32)CC1)C(=O)O [Example 18, 3-{4-[7-Chloro-2-(trifluoromethyl)-5H-pyrrolo[2,1-c][1,4]benzodiazepin-11-yl]piperazin-1-yl}-2,2-dimethylpropanoic acid dihydrochloride]",REM sleep inhibition (in words),[22],without significant
same,cumulative NREM sleep time (in words),[22],significantly increase
same,cumulative total sleep time (in words),[22],significantly increase
same,inhibition of locomotor intensity (LMI) (in words),[22],without significant
same,rebound insomnia (in words),[22],without significant
"CC(C)(CN1CCN(C2=Nc3ccc(Cl)cc3Cn3cc(Cl)cc32)CC1)C(=O)O [Example 19, 3-[4-(2,7-Dichloro-5H-pyrrolo[2,1-c][1,4]benzodiazepin-11-yl)piperazin-1-yl]-2,2-dimethylpropanoic acid dihydrochloride]",REM sleep inhibition (in words),[22],without significant
same,cumulative NREM sleep time (in words),[22],significantly increase
same,cumulative total sleep time (in words),[22],significantly increase
same,inhibition of locomotor intensity (LMI) (in words),[22],without significant
same,rebound insomnia (in words),[22],without significant
